Data reported in patent publication US9546362B2 (priority 2011, dated 2017).
Like-named read-outs stand apart in the source and are kept apart here.

Legend:
CsHCS2 [1] = molecular target: T1, CsHCS2 (Cannabis sativa, UniProt A0A7J6I5X8)
Experimental: The reactions were incubated for 10 min at 40° C., terminated with 2 μL of 1 N HCl and stored on ice until analysis.
The reaction mixtures were diluted 1:100 with water and subsequently separated using a Waters Acquity UPLC system fitted with an Acquity UPLC BEH C18 column (1.7 μm particle size, 2.1×50 mm column), and analyzed by MS/MS using a Micromass Quattro Ultima triple-quadrupole mass spectrometer. The solvent system used was buffer A: 5 mM TEA and 3 mM acetic acid in water, and buffer B: 5 mM TEA and 3 mM acetic acid in 95:5 methanol:water. The mass spectrometer settings were: ESI positive mode, collision energy 27 V, cone 135 V, scanning for 866>359 transitions.

CsHCS2 [2] = molecular target: T1, CsHCS2; test: Kinetic properties, separate experiment (Table 5); type: biochemical
CsHCS1 [3] = molecular target: T2, CsHCS1 (Cannabis sativa, UniProt H9A1V3, DEL715-715); test: biochemical
CsHCS1 [4] = molecular target: T2, CsHCS1; test: Hexanoyl-CoA synthetase activity (LC-MS/MS); type: biochemical; parameters: His8 (pHIS8/GW vector) (N); made in house; host or cells: E. coli Rosetta 2
CsHCS1 [5] = molecular target: T2, CsHCS1; settings: CsHCS1, Table 5
CsHCS2 [6] = molecular target: T1, CsHCS2; test: Carboxylic acid substrate range, luciferin/luciferase measurement of unconsumed ATP; type: biochemical; settings: CsHCS2, 500 μM carboxylic acid, 50 μM ATP, 3 h at 29° C., FIG. 3B
Experimental: (§1) To test the range of carboxylic acids that CsHCS1 and CsHCS2 can activate, enzyme assays were performed with a broad range of carboxylic acids and limiting ATP. The assay conditions used were similar to Schneider K et al. (2005). A new type of peroxisomal acyl-coenzyme A synthetase from Arabidopsis thaliana has the catalytic capacity to activate biosynthetic precursors of jasmonic acid. The Journal of Biological Chemistry, 280:13962-72. […] All carboxylic acid substrates were dissolved in 2% v/v Triton™ X-100, leading to a final concentration 0.05% Triton X-100 in the assay. After reacting for 3 h at 29° C., 10 μL aliquots of the reactions were transferred to 96-well plates for a luciferin/luciferase based measurement of unconsumed ATP. The plates were analyzed with a 1420 Multilabel counter (PerkinElmer). To each well, 90 μL of a solution containing 100 mM Tris pH 7.8, 1 mM MgCl2, 2.3 μg luciferin, and 0.5 μg of luciferase was injected, and after shaking for 2 seconds the luminescence was measured for 15 seconds without a filter in place. Lower readings, compared to the reactions with no carboxylic acid substrate, indicate a higher amount of enzymatic activity and therefore substrate utilization. The results are shown in FIG. 3, wherein error bars represent the percent error of the ratio, n=3.

CsHCS1 [7] = molecular target: T2, CsHCS1; test: as above; type: biochemical; parameters: His8 (pHIS8/GW vector) (N); made in house; host or cells: E. coli Rosetta 2; settings: CsHCS1, 500 μM carboxylic acid, 50 μM ATP, 3 h at 29° C., FIG. 3A
Experimental: as §1

CCCCCC(=O)O [8] = test: purified protein, by the assay type; type: biochemical, Cannabis sativa; settings: other: CsHCS1, substrate hexanoate; pH 9.0; 40.0 °C
[9] = system: CC(C)(COP(=O)(O)OP(=O)(O)OC[C@H]1O[C@@H](n2cnc3c(N)ncnc32)[C@H](O)[C@@H]1OP(=O)(O)O)[C@@H](O)C(=O)NCCC(=O)NCCS; test: purified protein, by the assay type
CCCCCC(=O)O [10] = test: purified protein, by the assay type; settings: other: CsHCS1, Table 5
CCCCCCCCCC(=O)O = test: purified protein, by the assay type; settings: other: CsHCS1, Table 5
[11] = system: olivetolic acid synthesis; test: Coupled enzymatic assay for olivetolic acid synthesis (CsHCS2, MCS, olivetol synthase/PKS, OAS); type: biochemical, Cannabis sativa; settings: 0.3 μg CsHCS2, 4 mM hexanoate, room temperature, 16 h, FIG. 4
Experimental: Eluted compounds were detected by absorbance at 263 nm and identified both by having the same retention times as isolated standards, and by their mass using a single quadrapole mass detector. […] HTAL=hexanoyltriacetic lactone, PDAL=pentyldiacetic lactone, OA=olivetolic acid, OL=olivetol.
The reaction was incubated at room temperature for 16 h, acidified and extracted in ethyl acetate. The polar fraction was recovered, evaporated to dryness and resuspended in 50 μL of methanol. An aliquot (5 μL) was analyzed by LCMS, and products were identified by their retention times and masses (see FIG. 4).

T1 sequence (A0A7J6I5X8 entry or part of it): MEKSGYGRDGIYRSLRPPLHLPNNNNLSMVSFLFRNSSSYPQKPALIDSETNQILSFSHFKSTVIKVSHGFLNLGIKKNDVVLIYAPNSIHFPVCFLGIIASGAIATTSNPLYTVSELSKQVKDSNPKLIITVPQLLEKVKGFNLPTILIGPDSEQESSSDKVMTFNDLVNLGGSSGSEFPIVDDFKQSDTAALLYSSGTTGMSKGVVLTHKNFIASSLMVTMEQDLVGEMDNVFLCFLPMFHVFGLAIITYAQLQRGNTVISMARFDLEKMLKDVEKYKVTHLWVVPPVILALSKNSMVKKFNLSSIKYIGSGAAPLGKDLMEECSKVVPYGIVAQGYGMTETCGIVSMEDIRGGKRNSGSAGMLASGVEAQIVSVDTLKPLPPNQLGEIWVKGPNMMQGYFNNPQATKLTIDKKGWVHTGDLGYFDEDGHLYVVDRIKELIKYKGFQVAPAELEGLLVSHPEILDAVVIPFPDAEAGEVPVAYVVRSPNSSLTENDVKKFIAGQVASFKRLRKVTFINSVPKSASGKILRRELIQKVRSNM

[Ca+2] [Ca^2+]
activity with divalent cation (CsHCS2 [1]): to a lesser extent

CC(C)(COP(=O)(O)OP(=O)(O)OC[C@H]1O[C@@H](n2cnc3c(N)ncnc32)[C@H](O)[C@@H]1OP(=O)(O)O)[C@@H](O)C(=O)NCCC(=O)NCCS [CoA, coenzyme A]
inhibition of CsHCS2 (CsHCS2 [2]): did not inhibit
Ki (CsHCS1 [3]): 5100 ± 1800 µM

[Co+2] [Co^2+]
activity with divalent cation (CsHCS2 [1]): highest

[Mg+2] [Mg^2+]
activity with divalent cation (CsHCS2 [1]): high
use of divalent cation (CsHCS1 [4]; CsHCS1, range of divalent cations tested): optimally used

[Mn+2] [Mn^2+]
activity with divalent cation (CsHCS2 [1]): high

CCCC(=O)O [butanoate]
Km (CsHCS2 [2]; read-out: Km): > 10 mM
Km (CsHCS1 [5]): > 10 mM

O=C(O)/C=C/c1ccccc1 [cinnamate]
utilization as substrate (CsHCS2 [6]): able to utilize

CCCCCCCCCC(=O)O [decanoate]
Ki (CsHCS2 [2]): 121 ± 47.9 µM
Km (CsHCS2 [2]; CsHCS2, Table 5): 0.0161 ± 0.0058 mM

CCCCCCCC(=O)O [octanoate]
utilization as substrate (CsHCS1 [7]): utilize

O=C(O)/C=C/c1ccc(O)cc1 [p-coumarate]
utilization as substrate (CsHCS2 [6]): to a lesser extent

CCCCC(=O)O [valerate]
utilization as substrate (CsHCS1 [7]): to a lesser extent

CsHCS1 (Cannabis sativa; DEL715-715)
Km (CCCCCC(=O)O [8]): 6.1 ± 1.0 mM
Vmax (CCCCCC(=O)O [8]): 15.6±1.7 pKat
kcat (CCCCCC(=O)O [8]): 4.5 s⁻¹
Km ([9]; other: CsHCS1, Table 5): 0.26 ± 0.05 μM μM
Km (CCCCCC(=O)O [10]): 3.7 ± 0.7 mM mM
Km (CCCCCCCCCC(=O)O): 1.7 ± 0.2 mM mM

CsHCS2 (Cannabis sativa)
Km ([9]; other: CsHCS2, Table 5): 0.16 ± 0.01 μM μM

CsHCS2: Cannabis sativa hexanoyl-CoA synthetase 2, alkanoyl-CoA synthetase, SEQ ID NO: 4
supply of hexanoyl-CoA for olivetolic acid synthesis [11]: capable of providing sufficient hexanoyl-CoA substrate for the synthesis of olivetolic acid
pH optimum (CsHCS2 [1]): 9
temperature optimum (CsHCS2 [1]): 40 °C

B1: CsHCS1: Cannabis sativa hexanoyl-CoA synthetase 1, alkanoyl-CoA synthetase, SEQ ID NO: 2 (protein, listed as Cannabis sativa)
chain: MGKNYKSLDSVVASDFIALGITSEVAETLHGRLAEIVCNYGAATPQTWINIANHILSPDLPFSLHQMLFYGCYKDFGPAPPAWIPDPEKVKSTNLGALLEKRGKEFLGVKYKDPISSFSHFQEFSVRNPEVYWRTVLMDEMKISFSKDPECILRRDDINNPGGSEWLPGGYLNSAKNCLNVNSNKKLNDTMIVWRDEGNDDLPLNKLTLDQLRKRVWLVGYALEEMGLEKGCAIAIDMPMHVDAVVIYLAIVLAGYVVVSIADSFSAPEISTRLRLSKAKAIFTQDHIIRGKKRIPLYSRVVEAKSPMAIVIPCSGSNIGAELRDGDISWDYFLERAKEFKNCEFTAREQPVDAYTNILFSSGTTGEPKAIPWTQATPLKAAADGWSHLDIRKGDVIVWPTNLGWMMGPWLVYASLLNGASIALYNGSPLVSGFAKFVQDAKVTMLGVVPSIVRSWKSTNCVSGYDWSTIRCFSSSGEASNVDEYLWLMGRANYKPVIEMCGGTEIGGAFSAGSFLQAQSLSSFSSQCMGCTLYILDKNGYPMPKNKPGIGELALGPVMFGASKTLLNGNHHDVYFKGMPTLNGEVLRRHGDIFELTSNGYYHAHGRADDTMNIGGIKISSIEIERVCNEVDDRVFETTAIGVPPLGGGPEQLVIFFVLKDSNDTTIDLNQLRLSFNLGLQKKLNPLFKVTRVVPLSSLPRTATNKIMRRVLRQFSHFE
pH optimum (CsHCS1 [4]; enzyme CsHCS1): 9
temperature optimum (CsHCS1 [4]; enzyme CsHCS1): 40 °C
